Reference: patent US9757456B2, “Super-saturating delivery vehicles for poorly water-soluble pharmaceutical and cosmetic active ingredients and suppression of crystallization of pharmaceutical active ingredients” (Nanologica AB, priority 2010, dated 2017)
Converted amounts (≈) assume the structure as drawn.

Columns and labels:
[1] = cited from earlier work
[2] = Dissolution / kinetic release of atazanavir from nanoporous silica in simulated intestine fluid (SIF); assay type: physicochemical
Procedure: In order to compare the concentrations of atazanavir crystallite and atazanavir in nanoporous silica, the UV absorbance scans of atazanavir in SIF with the time are shown in FIG. 1. […] The atazanavir super-saturating solutions from the nanoporous silica. […] Particularly, the super-saturating state produced from NFM-1 could be maintain for 24 hours, and the other two could maintain for 7 hours.
For nanoporous material NFM-1 loaded with ATV, the dissolution rate appears to decrease with increased particle concentration as a percentage of loaded amount. […] In the case of the highest particle concentration, a supersaturation state is maintained for 4 hours after which the dissolution decreases rapidly due to crystallization of the drug in the water bath in which the dissolution study is conducted.

[3] = cited from earlier work; remark: listed apart in the source
[4] = Solubility and release of Retinol / Retinol 50C in water; assay type: physicochemical; settings: 37° C., 150 rpm, after 20 days release from a nanoporous material
Procedure: As a mesoporous silica material, AMS-6 was selected in this example, having an Ia3d cubic pore structures, and a small pore diameter (around 4 nm average). Prior to the loading, AMS-6 was thermally treated in order to increase the hydrophobic of the inner/outer surface. 10 grams of calcined AMS-6 were placed in an oven and heated at 600° C. during 12 hours. The selected active ingredient was Retinol 50C. Retinol 50C is a formulation comprising pure Retinol and an excipient namely Polisorbate 20 used as stabilizer. […] The percentage of each component in the formulation is 50% in weight.

solubility in SIF (in words) ([2]; UV absorbance over time)	solubility at 4 h ([2]; simulated intestine fluid (SIF), fassgf or other biorelevant, thermodynamic from solid, after 4 hours, higher concentration of NFM-1-ATV particles, read-out: maximum solubility)	concentration of Retinol dissolved in water [4]	Compound	log P [1]	reduction in plasma concentration (Cmin) ([3]; co-administered with proton pump inhibitors)	bioavailability ([3]; in vivo)	half-life ([3]; in vivo)
very low	0.254 µg/mL (≈ 0.36 µM)	–	COC(=O)N[C@H](C(=O)N[C@@H](Cc1ccccc1)[C@@H](O)CN(Cc1ccc(-c2ccccn2)cc1)NC(=O)[C@@H](NC(=O)OC)C(C)(C)C)C(C)(C)C [Atazanavir]	5.20	≤ 78%	60-68%	6.5 h
–	–	3400 ng/mL	CC1=C(/C=C/C(C)=C/C=C/C(C)=C/CO)C(C)(C)CCC1 [Retinol]	–	–	–	–
